According to PubChem BioAssay AID588620 (NMMLSC, 2011):
Activity calls are given as the source filed them.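 How the source made its calls: active means fitted half-maximal concentration below 30 µM for cell fluorescence in pump-free yeast, so likely self-fluorescent; inactive means the rest.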

Experiment: concentration-dependent intrinsic compound fluorescence, S. cerevisiae AD/pABC3, flow cytometry, Cherry Pick1 hits, artefact control for antifungal efflux pump inhibitor project, dose response (AID 588620);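 further: red emission of unstained cells excited at 488 nm measured in PE-Texas Red channel; cell median fluorescence as percent of DMSO wells so 100% equals vehicle baseline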
Settings: S. cerevisiae AD/pABC3 compound autofluorescence, flow cytometry; at 33.1 µM (top of the series)

Row | SMILES | fluorescence response, % of control
1 | CC(C)(C)c1ccc(-n2ncc3c2CCCC3NC(=O)c2cnccn2)cc1 (configuration not stated) | 90.8% (inactive)
2 | C[C@H](CO)N1C[C@H](C)[C@@H](CN(C)S(=O)(=O)c2cccs2)Oc2c(NC(=O)Nc3ccc4c(c3)OCO4)cccc2C1=O | 96.9% (inactive)
3 | O=C(CSc1nnc(Cc2cccs2)n1Cc1ccco1)Nc1cccc(Cl)c1 | 128% (inactive)
4 | COc1ccc(CNC(=O)C(C)n2nc(C)c3c(C)n(-c4ccc(C)cc4)nc3c2=O)cc1 (configuration not stated) | 77.9% (inactive)
5 | COc1ncccc1C(=O)NC1CCCc2c1cnn2-c1cc(C)cc(C)c1 (configuration not stated) | 76.4% (inactive)
6 | COc1cccc(C(=O)NC2CC(C)(C)Cc3c2cnn3-c2cccc(F)c2)c1OC (configuration not stated) | 121% (inactive)
7 | Cc1noc(C)c1C(=O)N1CCC2(CC1)Oc1ccc(F)cc1C(=O)C21CC(c2ccc(Cl)cc2)=NO1 (configuration not stated) | 90.5% (inactive)
8 | CCC1Nc2ncnc(N3CCN(c4ccccc4)CC3)c2N(Cc2ccccc2)C1=O (configuration not stated) | 103% (inactive)
9 | COc1ccc2sc(-c3ccccc3OC)c(-c3ccc(OCCN4CCOCC4)cc3)c2c1 | 81.8% (inactive)
10 | CCOC(=O)CC(=O)c1cc(OC)c(OC)c(OC)c1 | 96.1% (inactive)
11 | O=c1[nH]c(C2CCN(S(=O)(=O)c3ccc4c(c3)OCCO4)CC2)nc2c1nnn2Cc1ccc(F)cc1 | 94.5% (inactive)
12 | C[C@H](CO)N1C[C@H](C)[C@@H](CN(C)S(=O)(=O)c2ccccc2)Oc2c(NC(=O)Nc3ccccc3)cccc2C1=O | 83.7% (inactive)
13 | CCCCCCCCn1ccc(=N)cc1 | 102% (inactive)
14 | Cc1ccc(C)c(C(=O)COC(=O)c2ccc(C)c(S(=O)(=O)N3CCOCC3)c2)c1 | 93.5% (inactive)
15 | O=c1[nH]c(=S)[nH]c(O)c1/C=C1/C=c2ccccc2=N1 | 114% (inactive)
16 | COc1ccc2cc(CN(CC3CCCO3)S(=O)(=O)c3ccc(C(C)=O)cc3)c(=O)[nH]c2c1 (configuration not stated) | 78.2% (inactive)
17 | CCOC(=O)c1ccc(S(=O)(=O)NNS(=O)(=O)c2ccc(C)cc2)cc1 | 112% (inactive)
18 | Cc1ccc(CN2C(=O)C(Cc3ccccc3)Nc3ncnc(N4CCN(c5ccccc5)CC4)c32)cc1 (configuration not stated) | 111% (inactive)
19 | NC(=S)NNC(=O)[C@@H]1CCCC[C@@H]1C(=O)O | 117% (inactive)

Row | SMILES | fluorescence response, % of control
20 | CCOc1ccccc1-c1nc(C(N)=O)c2[nH]c(=O)n(-c3ccccc3)c2n1 | 90.8% (inactive)
21 | O=C1C(Cl)=C(Nc2ccc3cn[nH]c3c2)C(=O)c2ccccc21 | 145% (inactive)
22 | COc1cc(/C=C(\C#N)c2nc3ccccc3n2C)cc(OC)c1O | 333% (inactive)
23 | O=C(c1ccc2c(c1)OCO2)N1CCC2(CC1)Oc1ccc(F)cc1C(=O)C21CC(c2ccc(Cl)cc2)=NO1 (configuration not stated) | 165% (inactive)
24 | NC1=NC[C@H](Cc2ccc(O)cc2)N1CCc1cc(C(F)(F)F)cc(C(F)(F)F)c1 | 83.1% (inactive)
25 | Cc1ccc(C)c(Cn2nnc3c(=O)[nH]c(C4CCN(S(=O)(=O)c5ccc(S(=O)(=O)N(C)C)cc5)CC4)nc32)c1 | 119% (inactive)
26 | NC1=NC[C@H](Cc2ccccc2)N1CCCCC1CCCCC1 | 127% (inactive)
27 | O=C(/C=C/c1ccccc1[N+](=O)[O-])NCCc1ccc(F)cc1 | 90.8% (inactive)
28 | O=C(Cn1c(COc2ccccc2)nc2ccccc21)Nc1cc(Cl)c(Cl)cc1Cl | 87.6% (inactive)
29 | CC(C)C(=O)N1CCC2(CC1)Oc1ccc(Cl)cc1C(=O)C21CC(c2ccc(Cl)cc2)=NO1 (configuration not stated) | 111% (inactive)
30 | O=C(C[n+]1cc(-c2ccc(Cl)c(Cl)c2)n2c1CCC2)N1c2ccccc2Sc2ccccc21 | 92.7% (inactive)
31 | O=c1[nH]c(C2CCN(S(=O)(=O)c3ccc4c(c3)OCCO4)CC2)nc2c1nnn2Cc1cccc(F)c1 | 172% (inactive)
32 | CCC1Nc2ncnc(N3CCN(c4ccccn4)CC3)c2N(Cc2ccc(Br)cc2)C1=O (configuration not stated) | 85.4% (inactive)
33 | COc1cc2c(cc1NC(=O)CSc1nnc(Cc3cccs3)n1Cc1ccco1)oc1ccccc12 | 85.8% (inactive)
34 | CC(C)(C)C1CCC(OC(=O)C[N+]2(C)CCCC2)CC1 (configuration not stated) | 109% (inactive)
35 | COc1ccc(-c2sc3cc4c(cc3c2-c2ccc(OCCN3CCCCC3)cc2)OCO4)cc1 | 91.7% (inactive)
36 | N#CCCN1CCN(C(=S)c2ccc(-c3ccc(Cl)c(Cl)c3)o2)CC1 | 75.6% (inactive)
37 | O=C1c2cc(Cl)ccc2OC2(CCNCC2)C12CC(c1ccccc1)=NO2 (configuration not stated) | 107% (inactive)
38 | O=C(/C=C/c1cccs1)N1CCC2(CC1)Oc1ccc(F)cc1C(=O)C21CC(c2ccccc2)=NO1 (configuration not stated) | 96.4% (inactive)

Row | SMILES | fluorescence response, % of control
39 | O=C(NC1CCCc2c1cnn2-c1ccccc1F)c1ccccn1 (configuration not stated) | 81.2% (inactive)
40 | O=C1C(Cc2ccccc2)Nc2ncnc(N3CCN(c4ccccc4)CC3)c2N1Cc1ccc(Cl)cc1 (configuration not stated) | 97.1% (inactive)
41 | C[C@@H]1CN(C(=O)c2cc(COc3cccc(C(F)(F)F)c3)on2)C[C@H](C)O1 | 97.1% (inactive)
42 | COc1cccc(CN(CC(=O)NCC2CCCO2)C(=O)CCC(=O)Nc2cc(C)on2)c1 (configuration not stated) | 103% (inactive)
43 | COc1ccc(/C=C/C(=O)Nc2cccc(S(=O)(=O)N3CCCC3)c2)cc1OC | 103% (inactive)
44 | CCSc1cc(N2CCCC2)nc(-c2ccc(C)cc2)n1 | 101% (inactive)
45 | CCOC(=O)c1cccc(NC(=O)c2ccc(NC(=O)c3ccco3)cc2)c1 | 85.8% (inactive)
46 | COc1ccc(CN2C(=O)C(C)Nc3ncnc(N4CCN(c5ccccc5)CC4)c32)cc1 (configuration not stated) | 106% (inactive)
47 | Cc1ccc(C(=O)N2CCC3(CC2)Oc2ccc(Cl)cc2C(=O)C32CC(c3ccccc3)=NO2)s1 (configuration not stated) | 105% (inactive)
48 | Cc1ccc2nc(-c3ccccc3)cc(C(=O)N3CCN(S(=O)(=O)c4c(C)noc4C)CC3)c2c1 | 109% (inactive)
49 | Cc1ccc(Cn2nnc3c(=O)[nH]c(C4CCN(S(=O)(=O)c5ccc(F)cc5)CC4)nc32)cc1 | 116% (inactive)
50 | Cc1cc(C(=O)NC2CC(C)(C)Cc3c2cnn3-c2cccc(F)c2)n(C)n1 (configuration not stated) | 82.7% (inactive)
51 | OCCN1CCN(CC/C=C2/c3ccccc3Sc3ccc(C(F)(F)F)cc32)CC1 | 332% (inactive)
52 | CCCCCCCCCCOC(=O)Cn1c(COc2cccc(C)c2)[n+](C)c2ccccc21 | 105% (inactive)
53 | Cc1cnc(C(=O)NC2CC(C)(C)Cc3c2cnn3-c2ccccc2)cn1 (configuration not stated) | 98.5% (inactive)
54 | COc1ccc(S(=O)(=O)N2CCCCC2)cc1NC(=O)c1ccc(CS(C)(=O)=O)cc1 | 99.1% (inactive)
55 | Cn1cc(C(c2ccccn2)c2cn(C)c3ccccc23)c2ccccc21 | 97.1% (inactive)
56 | CCOc1ccccc1-c1nc(C(N)=O)c2[nH]c(=O)n(-c3cccc(C)c3)c2n1 | 80.3% (inactive)
57 | CCc1ccc(N=C2NC(=O)/C(=C/c3cc(OC)c(O)c(OC)c3)S2)cc1 | 419% (inactive)
